# Values quoted from earlier work in patent publication US20030170318A1, “Fluoride compositions and uses thereof” (priority 2000, published 2003).
# Tests used:
# Ras/RasGAP complex = conditions: fluoride salt added to mixed Ras and GAP; free fluoride needed in solution
# Drosophila = conditions: mutation induced by Trenimon and 1-phenyl-3,3-dimethyltriazene
# [1] = children
# [2] = test system: human leukemia (HL-60) cells
# [3] = test system: osteosarcoma cell line UMR 106; conditions: 0.5 mM fluoride, UMR 106 cultures
# normal cells = conditions: pre, simultaneous and post-treatments; Trenimon-induced chromosomal aberrations
# mutant RhoGAP = conditions: arginine to alanine mutant, in the presence of aluminum fluoride
molecule,measurement,setting,value
"[Be+2].[F-].[F-] [beryllium fluoride, reference compound]",Ras/RasGAP complex formation,Ras/RasGAP complex,readily formed
F [fluoride],antimutagenic effect,Drosophila,strong antimutagenic effect
same,fluoride retained of all fluoride consumed,[1],twenty
same,toxic blood plasma fluoride level,,about 15 μM
same,cell death,[2],causes cell death
same,caspase-3 activation leading to apoptosis,[2]; cleaves poly(ADP-ribose) polymerase,activation of caspase-3
same,apoptosis,[3],induction of apoptosis
same,cell proliferation,[3],decrease in cell proliferation
[F-].[F-].[Mg+2] [magnesium fluoride],Ras/RasGAP complex formation,Ras/RasGAP complex,readily formed
[F-].[Na+] [sodium fluoride],frequency of undamaged mitosis,normal cells,significantly enhanced
aluminum fluoride,hydrolysis of RhoGTP to RhoGDP by mutant RhoGAP,mutant RhoGAP,as effective as normal RhoGAP
same,Ras/RasGAP complex formation,Ras/RasGAP complex,readily formed
